Reference: patent EP0341527A2, “Agent for increasing animal growth” (HOECHST AKTIENGESELLSCHAFT, priority 1988, dated 1989)

Assays:
männlichen Ratten = assay: Feeding trial in male rats (growth, feed intake, feed conversion); assay type: in vivo; settings: for Futterverwertung (g Futter/g Gewichtszunahme) relativ zur Kontrollgruppe in % / mittlere Futterverwertung relativ zur Kontrollgruppe in %: lower number = better feed conversion; for mittlere Futterverwertung relativ zur Kontrollgruppe in %: mean over 5-40 ppm Forskolin; for Futteraufnahme (g/d) / Futteraufnahme relativ zur Kontrolle / Gewicht (g) am Ende / Gewichtszunahme relativ zur Kontrolle (%): 28 d
Excerpt: In einem Fütterungsversuch mit 60 männlichen Ratten im Gewichtsabschnitt von 40 bis 170 g Lebendmasse wurde die Wirkung von 5, 10, 20 und 40 ppm Forskolin im Futter bei zwei verschiedenen Proteingehalten der Diäten (15 und 20 Gew.-% für eine suboptimale bzw. optimale Versorgung) auf das Wachstum, die Futteraufnahme und die Futterverwertung im Vergleich zum Futter ohne Gehalt an Forskolin untersucht. Die Diäten (Zusammensetzung siehe Tabelle 1) waren mit 16,6 und 16,8 kJ/g Trockensubstanz isokalorisch. Jeweils sechs Tiere wurden mit Futter gleichen Gehalts an Forskolin und Protein gefüttert und die Resultate für die Auswertung ermittelt. Die jeweiligen sechs Tiere wurden zu je zweien in Makrolonkäfigen in einer Klimakammer bei konstant 25°C und 65 % relativer Luftfeuchte 28 Tage lang gehalten.

[1] = system: Männliche Lohmann-Masthähnchen; assay: Feeding trial in broilers (growth, feed intake, feed conversion); assay type: in vivo, Broilern; settings: for Futteraufnahme (g/d) / Futteraufnahme, prozentualer Wert relativ zur Kontrollgruppe / Gewicht (Masse) am Ende, prozentualer Wert relativ zur Kontrollgruppe / Massezunahme, prozentualer Wert relativ zur Kontrollgruppe / Futterverwertung, prozentualer Wert relativ zur Kontrollgruppe / Gewicht (Masse) (g) am Ende / Massezunahme (g/d) / Futterverwertung g Futter/g Zunahme: 22 wt% protein; for Futterverwertung, prozentualer Wert relativ zur Kontrollgruppe / Futterverwertung g Futter/g Zunahme: lower = better; for Gewicht (Masse) (g) am Ende / Massezunahme (g/d) / Futterverwertung g Futter/g Zunahme: mean ± spread
Protocol: Männliche Lohmann-Masthähnchen mit einer Lebendmasse zwischen 35 und 45 g wurden in Gruppen von jeweils 20 Tieren pro Behandlung (100 cm²/Tier) auf einer Einstreu aus Hobelspänen bei 24-stündiger Beleuchtung und einer Temperatur von 36 ± 1°C bis zum 21. Versuchstag und 26 ± 1°C vom 22. bis zum 35. Versuchstag gehalten. Das Futter wurde ad libitum angeboten. Die Zusammensetzung des Futters (ohne Wirkstoff) ist in Tabelle 5 angegeben. Der Proteingehalt betrug 22 Gew.-% (entsprechend dem Bedarf). Forskolin wurde als Wurzelmehl über eine Glucose-Vormischung in die Ration eingebracht. Tabelle 5

[2] = 15 wt% crude protein diet, 5 ppm Forskolin in feed
[3] = 15 wt% crude protein diet, 10 ppm Forskolin in feed
[4] = 15 wt% crude protein diet, 20 ppm Forskolin in feed
[5] = 15 wt% crude protein diet, 40 ppm Forskolin in feed
[6] = 20 wt% crude protein diet, 5 ppm Forskolin in feed
[7] = 20 wt% crude protein diet, 10 ppm Forskolin in feed
[8] = 20 wt% crude protein diet, 20 ppm Forskolin in feed
[9] = 20 wt% crude protein diet, 40 ppm Forskolin in feed
[10] = 2 ppm Forskolin in feed (as root meal)
[11] = 4 ppm Forskolin in feed (as root meal)
[12] = 8 ppm Forskolin in feed (as root meal)
[13] = 16 ppm Forskolin in feed (as root meal)
[14] = 32 ppm Forskolin in feed (as root meal)
[15] = broilers, 'up to', 2-32 ppm Forskolin in feed

With `C=C[C@@]1(C)CC(=O)[C@]2(O)[C@@]3(C)[C@@H](O)CCC(C)(C)[C@@H]3[C@H](O)[C@H](OC(C)=O)[C@@]2(C)O1` [Forskolin] the Zuwachs (männlichen Ratten; 15 % protein, 5 ppm Forskolin) was “ca. 91 g”, the “Futterverwertung (g Futter/g Gewichtszunahme) relativ zur Kontrollgruppe in %” value (männlichen Ratten; 15 % protein, 5 ppm Forskolin) was 107,7% and the Zuwachs (männlichen Ratten; 15 % protein, 10 ppm Forskolin) was ~115 g. For the same compound, the “Futterverwertung (g Futter/g Gewichtszunahme) relativ zur Kontrollgruppe in %” value (männlichen Ratten; 15 % protein, 10 ppm Forskolin) was 100,8%, the Zuwachs (männlichen Ratten; 15 % protein, 20 ppm Forskolin) was ~122 g and the “Futterverwertung (g Futter/g Gewichtszunahme) relativ zur Kontrollgruppe in %” value (männlichen Ratten; 15 % protein, 20 ppm Forskolin) was 97,3%. For the same compound, the “Futterverwertung (g Futter/g Gewichtszunahme) relativ zur Kontrollgruppe in %” value (männlichen Ratten; 15 % protein, 40 ppm Forskolin) was 109,3%, the “mittlere Futterverwertung relativ zur Kontrollgruppe in %” value (männlichen Ratten; 15 % protein) was 103,7% and the “gesteigerte Zunahme an Lebendmasse im Vergleich zur entsprechenden Kontrollgruppe” value (männlichen Ratten; 15 and 20 wt% protein, up to 20 ppm Forskolin, within 28 days, 'up to') was ≤ 39%. For the same compound, the “Gewichtszunahme (g/28 d)” value (männlichen Ratten; [2]) was 90,9 g/28 d, the “Futteraufnahme (g/d)” value (männlichen Ratten; [2]) was 9,07 g/d and the “Futteraufnahme relativ zur Kontrolle” value (männlichen Ratten; [2]) was 111,9. For the same compound, the “Gewicht (g) am Ende” value (männlichen Ratten; [2]) was 131,3 g, the “Gewichtszunahme relativ zur Kontrolle (%)” value (männlichen Ratten; [2]) was 103,6% and the “Gewichtszunahme (g/28 d)” value (männlichen Ratten; [3]) was 115,1 g/28 d. For the same compound, the “Futteraufnahme (g/d)” value (männlichen Ratten; [3]) was 10,70 g/d, the “Futteraufnahme relativ zur Kontrolle” value (männlichen Ratten; [3]) was 132,2 and the “Gewicht (g) am Ende” value (männlichen Ratten; [3]) was 156,0 g. For the same compound, the “Gewichtszunahme relativ zur Kontrolle (%)” value (männlichen Ratten; [3]) was 131,2%, the “Gewichtszunahme (g/28 d)” value (männlichen Ratten; [4]) was 122,0 g/28 d and the “Futteraufnahme (g/d)” value (männlichen Ratten; [4]) was 11,00 g/d. For the same compound, the “Futteraufnahme relativ zur Kontrolle” value (männlichen Ratten; [4]) was 135,7, the “Gewicht (g) am Ende” value (männlichen Ratten; [4]) was 162,6 g and the “Gewichtszunahme relativ zur Kontrolle (%)” value (männlichen Ratten; [4]) was 139,1%. For the same compound, the “Gewichtszunahme (g/28 d)” value (männlichen Ratten; [5]) was 81,8 g/28 d, the “Futteraufnahme (g/d)” value (männlichen Ratten; [5]) was 8,26 g/d and the “Futteraufnahme relativ zur Kontrolle” value (männlichen Ratten; [5]) was 101,8. The “Gewicht (g) am Ende” value (männlichen Ratten; [5]) was 122,3 g, the “Gewichtszunahme relativ zur Kontrolle (%)” value (männlichen Ratten; [5]) was 93,3% and the “Futterverwertung erhöht” value (männlichen Ratten; 20 % protein content, 'up to about', refers to mean feed conversion of Table 4) was ≤ 8%. For the same compound, the “Futterverwertung (g Futter/g Gewichtszunahme) relativ zur Kontrollgruppe in %” value (männlichen Ratten; 20 % protein, 5 ppm Forskolin) was 92,4%, the Zuwachs (männlichen Ratten; 20 % protein, 10 ppm Forskolin) was ~113 g and the “Futterverwertung (g Futter/g Gewichtszunahme) relativ zur Kontrollgruppe in %” value (männlichen Ratten; 20 % protein, 10 ppm Forskolin) was 93,8%. The Zuwachs (männlichen Ratten; 20 % protein, 20 ppm Forskolin) was ~121 g, the “Futterverwertung (g Futter/g Gewichtszunahme) relativ zur Kontrollgruppe in %” value (männlichen Ratten; 20 % protein, 20 ppm Forskolin) was 90,5% and the “Futterverwertung (g Futter/g Gewichtszunahme) relativ zur Kontrollgruppe in %” value (männlichen Ratten; 20 % protein, 40 ppm Forskolin) was 92,0%. For the same compound, the “mittlere Futterverwertung relativ zur Kontrollgruppe in %” value (männlichen Ratten; 20 % protein) was 92,2%, the “Gewichtszunahme (g/28 d)” value (männlichen Ratten; [6]) was 117,6 g/28 d and the “Futteraufnahme (g/d)” value (männlichen Ratten; [6]) was 10,70 g/d. For the same compound, the “Futteraufnahme relativ zur Kontrolle” value (männlichen Ratten; [6]) was 115,7, the “Gewicht (g) am Ende” value (männlichen Ratten; [6]) was 157,7 g and the “Gewichtszunahme relativ zur Kontrolle (%)” value (männlichen Ratten; [6]) was 124,4%. The “Gewichtszunahme (g/28 d)” value (männlichen Ratten; [7]) was 112,9 g/28 d, the “Futteraufnahme (g/d)” value (männlichen Ratten; [7]) was 10,40 g/d and the “Futteraufnahme relativ zur Kontrolle” value (männlichen Ratten; [7]) was 112,4. The “Gewicht (g) am Ende” value (männlichen Ratten; [7]) was 153,2 g, the “Gewichtszunahme relativ zur Kontrolle (%)” value (männlichen Ratten; [7]) was 119,9% and the “Gewichtszunahme (g/28 d)” value (männlichen Ratten; [8]) was 120,5 g/28 d. For the same compound, the “Futteraufnahme (g/d)” value (männlichen Ratten; [8]) was 10,70 g/d, the “Futteraufnahme relativ zur Kontrolle” value (männlichen Ratten; [8]) was 115,7 and the “Gewicht (g) am Ende” value (männlichen Ratten; [8]) was 161,9 g. The “Gewichtszunahme relativ zur Kontrolle (%)” value (männlichen Ratten; [8]) was 127,9%, the “Gewichtszunahme (g/28 d)” value (männlichen Ratten; [9]) was 103,1 g/28 d and the “Futteraufnahme (g/d)” value (männlichen Ratten; [9]) was 9,31 g/d. The “Futteraufnahme relativ zur Kontrolle” value (männlichen Ratten; [9]) was 100,6, the “Gewicht (g) am Ende” value (männlichen Ratten; [9]) was 143,0 g and the “Gewichtszunahme relativ zur Kontrolle (%)” value (männlichen Ratten; [9]) was 109,4%. For the same compound, the Futteraufnahme (g/d) [1, 10] was 88,4 g/d, the “Futteraufnahme, prozentualer Wert relativ zur Kontrollgruppe” value [1, 10] was 104,0% and the “Gewicht (Masse) am Ende, prozentualer Wert relativ zur Kontrollgruppe” value (from here on “Gewicht (Masse) am Ende”) [1, 10] was 108,5%. For the same compound, the “Massezunahme, prozentualer Wert relativ zur Kontrollgruppe” value [1, 10] was 109,0%, the “Futterverwertung, prozentualer Wert relativ zur Kontrollgruppe” value [1, 10] was 94,6% and the “Gewicht (Masse) (g) am Ende” value [1, 10] was 1715,2±196,2 g. For the same compound, the “Massezunahme (g/d)” value [1, 10] was 45,4±5,4 g/d, the “Futterverwertung g Futter/g Zunahme” value [1, 10] was 1,97±0,24 g Futter/g Zunahme and the Futteraufnahme (g/d) [1, 11] was 86,2 g/d. The “Futteraufnahme, prozentualer Wert relativ zur Kontrollgruppe” value [1, 11] was 101,6%, the “Gewicht (Masse) am Ende” value [1, 11] was 106,4% and the “Massezunahme, prozentualer Wert relativ zur Kontrollgruppe” value [1, 11] was 106,0%. For the same compound, the “Futterverwertung, prozentualer Wert relativ zur Kontrollgruppe” value [1, 11] was 95,7%, the “Gewicht (Masse) (g) am Ende” value [1, 11] was 1682,5±253,7 g and the “Massezunahme (g/d)” value [1, 11] was 44,4±6,9 g/d. For the same compound, the “Futterverwertung g Futter/g Zunahme” value [1, 11] was 1,99±0,38 g Futter/g Zunahme, the Futteraufnahme (g/d) [1, 12] was 83,8 g/d and the “Futteraufnahme, prozentualer Wert relativ zur Kontrollgruppe” value [1, 12] was 98,7%. The “Gewicht (Masse) am Ende” value [1, 12] was 103,9%, the “Massezunahme, prozentualer Wert relativ zur Kontrollgruppe” value [1, 12] was 104,3% and the “Futterverwertung, prozentualer Wert relativ zur Kontrollgruppe” value [1, 12] was 93,8%. For the same compound, the “Gewicht (Masse) (g) am Ende” value [1, 12] was 1643,0±192,3 g, the “Massezunahme (g/d)” value [1, 12] was 43,5±5,3 g/d and the “Futterverwertung g Futter/g Zunahme” value [1, 12] was 1,95±0,24 g Futter/g Zunahme. The Futteraufnahme (g/d) [1, 13] was 86,7 g/d, the “Futteraufnahme, prozentualer Wert relativ zur Kontrollgruppe” value [1, 13] was 102,0% and the “Gewicht (Masse) am Ende” value [1, 13] was 103,1%. The “Massezunahme, prozentualer Wert relativ zur Kontrollgruppe” value [1, 13] was 103,4%, the “Futterverwertung, prozentualer Wert relativ zur Kontrollgruppe” value [1, 13] was 97,9% and the “Gewicht (Masse) (g) am Ende” value [1, 13] was 1629,5±242,4 g. For the same compound, the “Massezunahme (g/d)” value [1, 13] was 43,1±6,6 g/d, the “Futterverwertung g Futter/g Zunahme” value [1, 13] was 2,04±0,33 g Futter/g Zunahme and the Futteraufnahme (g/d) [1, 14] was 86,4 g/d. The “Futteraufnahme, prozentualer Wert relativ zur Kontrollgruppe” value [1, 14] was 101,8%, the “Gewicht (Masse) am Ende” value [1, 14] was 103,9% and the “Massezunahme, prozentualer Wert relativ zur Kontrollgruppe” value [1, 14] was 103,9%. For the same compound, the “Futterverwertung, prozentualer Wert relativ zur Kontrollgruppe” value [1, 14] was 97,2%, the “Gewicht (Masse) (g) am Ende” value [1, 14] was 1642,7±182,9 g and the “Massezunahme (g/d)” value [1, 14] was 43,3±5,0 g/d. For the same compound, the “Futterverwertung g Futter/g Zunahme” value [1, 14] was 2,02±0,28 g Futter/g Zunahme, the Futterverwertung verbessert [1, 15] was ≤ 7% and the “Lebendmassezunahme gegenüber der Kontrollgruppe verbessert” value [1, 15] was ≤ 9%.
